According to the supplement of paper PMC13380429:
± gives the standard deviation of the averaged measurements.

What was measured:
Conditions in all cases: 72 h
[1] = system: HepG2; assay: drug sensitivity score (DSS) for viability; higher = more toxic; extreme values may be limits of the assay
[2] = system: Vero E6; assay: as above
[3] = system: Calu-3; assay: as above
[4] = system: U2OS; assay: as above
[5] = system: Caco-2; assay: as above
[6] = system: HepG2; assay: cell viability relative to DMSO; higher = less toxic
[7] = system: Vero E6; assay: as above
[8] = system: Calu-3; assay: as above
[9] = system: U2OS; assay: as above
[10] = system: Caco-2; assay: as above
[11] = system: HepG2; assay: relative viability EC50 (midpoint between 100% and the lowest measured viability); higher = less toxic
[12] = system: Vero E6; assay: as above
[13] = system: Calu-3; assay: as above
[14] = system: U2OS; assay: as above
[15] = system: Caco-2; assay: as above

| Compound | drug sensitivity score [1] | drug sensitivity score [2] | drug sensitivity score [3] | drug sensitivity score [4] | drug sensitivity score [5] | cell viability ([6]; 1 nM) [%] | cell viability ([6]; 10 nM) [%] | cell viability ([6]; 100 nM) [%] | cell viability ([6]; 1000 nM) [%] | cell viability ([6]; 10000 nM) [%] | cell viability ([7]; 1 nM) [%] | cell viability ([7]; 10 nM) [%] | cell viability ([7]; 100 nM) [%] | cell viability ([7]; 1000 nM) [%] | cell viability ([7]; 10000 nM) [%] | cell viability ([8]; 1 nM) [%] | cell viability ([8]; 10 nM) [%] | cell viability ([8]; 100 nM) [%] | cell viability ([8]; 1000 nM) [%] | cell viability ([8]; 10000 nM) [%] | cell viability ([9]; 1 nM) [%] | cell viability ([9]; 10 nM) [%] | cell viability ([9]; 100 nM) [%] | cell viability ([9]; 1000 nM) [%] | cell viability ([9]; 10000 nM) [%] | cell viability ([10]; 1 nM) [%] | cell viability ([10]; 10 nM) [%] | cell viability ([10]; 100 nM) [%] | cell viability ([10]; 1000 nM) [%] | cell viability ([10]; 10000 nM) [%] | relative viability EC50 [11] [µM] | relative viability EC50 [12] [µM] | relative viability EC50 [13] [µM] | relative viability EC50 [14] [µM] | relative viability EC50 [15] [µM] |
| --- | --- | --- | --- | --- | --- | --- | --- | --- | --- | --- | --- | --- | --- | --- | --- | --- | --- | --- | --- | --- | --- | --- | --- | --- | --- | --- | --- | --- | --- | --- | --- | --- | --- | --- | --- |
| Cc1ccccc1C(=O)Nc1ccc(C(=O)N2CCCC(O)c3cc(Cl)ccc32)c(C)c1 (stereo not given) [tolvaptan] | 0 | 0 | 0.5 | 0 | 0.1 | 99.7 | 93 | 96.4 | 106 | 110 | 99.4 | 100 | 93.4 | 98.3 | 104 | 91 | 86.3 | 91.7 | 78.8 | 102 | 94.2 | 92.1 | 103 | 97.4 | 96.7 | 100 | 96.4 | 90.1 | 89.8 | 94.1 | > 10 | > 10 | > 10 | > 10 | > 10 |
| Cc1cc(OCC(=O)O)cc(C)c1Cc1ccc(O)c(C(C)C)c1 [sobetirome] | 0.4 | 0.3 | 0 | 0 | 0 | 100 | 103 | 96 | 96.2 | 85 | 102 | 99.3 | 87.9 | 96.4 | 85.3 | 102 | 96.6 | 105 | 98.7 | 101 | 97.5 | 99.9 | 99.5 | 99.5 | 100 | 102 | 95.7 | 92.1 | 94.7 | 90.5 | > 10 | > 10 | > 10 | > 10 | > 10 |
| CN(C)CC[C@@H](c1ccc(Cl)cc1)c1ccccn1 [chlorphenamine] | 0 | 0 | 0 | 0 | 0 | 102 ± 2 | 113.5 ± 0.71 | 96.4 ± 2.8 | 94.7 ± 2.3 | 99.2 ± 10 | 103 ± 6.3 | 103 ± 6.7 | 99.1 ± 1.3 | 95.4 ± 3.7 | 96.8 ± 3.2 | 97.8 ± 1.2 | 95.2 ± 1.8 | 93.3 ± 3.8 | 97.7 ± 3.3 | 96.4 ± 14 | 98 ± 3.7 | 97.8 ± 0.71 | 94.7 ± 1.7 | 95.2 ± 2.4 | 93 ± 2.6 | 102 ± 3.8 | 100 ± 2.9 | 102 | 98.8 ± 3.8 | 93.05 ± 0.35 | > 10 | > 10 | > 10 | > 10 | > 10 |
| COc1cc(Nc2nc3ccccc3nc2NS(=O)(=O)c2ccc(NC(=O)c3ccc(C)c(OC)c3)cc2)cc(OC)c1 | 0 | 0 | 0 | 0 | 0 | 101 | 83.8 | 92.1 | 99.1 | 89.7 | 99.9 | 95.9 | 102 | 95.7 | 99.9 | 109 | 85.9 | 109 | 94.4 | 110 | 97 | 97.7 | 97.1 | 95.9 | 103 | 95.4 | 100 | 96 | 97.7 | 103 | > 10 | > 10 | > 10 | > 10 | > 10 |
| Cc1c(N(C)C)c(=O)n(-c2ccccc2)n1C [amidopyrine] | 0 | 0 | 0 | 0 | 0.1 | 94.7 | 92.2 | 112 | 106 | 99.7 | 97.8 | 96.4 | 104 | 97.7 | 89.2 | 105 | 109 | 99.5 | 112 | 103 | 95.1 | 101 | 93.2 | 99.2 | 96.4 | 102 | 106 | 97.9 | 110 | 84 | > 10 | > 10 | > 10 | > 10 | > 10 |
| Cc1ccccc1-n1c(CF)nc2ccc(N)cc2c1=O [afloqualone] | 0 | 0 | 0 | 0 | 0 | 100 | 94 | 100 | 83.3 | 93.7 | 105 | 98.2 | 100 | 102 | 92.4 | 98.1 | 96.8 | 101 | 108 | 109 | 98.3 | 97.9 | 102 | 98.6 | 102 | 98 | 102 | 104 | 101 | 110 | > 10 | > 10 | > 10 | > 10 | > 10 |
| C[C@@H]1CC[C@@]2(OC1)O[C@H]1C[C@H]3[C@@H]4CC=C5C[C@@H](O)CC[C@]5(C)[C@H]4CC[C@]3(C)[C@H]1[C@@H]2C [diosgenin] | 0 | 0 | 0 | 0 | 0 | 101 | 105 | 98.8 | 102 | 106 | 102 | 107 | 102 | 103 | 98.1 | 96.8 | 91.3 | 84.2 | 95.4 | 95.4 | 95.9 | 99.1 | 101 | 99.9 | 98.1 | 105 | 97.9 | 101 | 94.5 | 101 | > 10 | > 10 | > 10 | > 10 | > 10 |
| O=C(NC(O)C(Cl)(Cl)Cl)NC(O)C(Cl)(Cl)Cl (stereo not given) [dicloralurea] | 0 | 0 | 0 | 0 | 0 | 96.2 | 107 | 109 | 104 | 97.4 | 97.6 | 101 | 95.2 | 92.4 | 103 | 94.1 | 96.2 | 102 | 86.9 | 99.5 | 97 | 92.4 | 97.6 | 94.4 | 103 | 96.6 | 114 | 111 | 102 | 90.1 | > 10 | > 10 | > 10 | > 10 | > 10 |
| Cn1c(=O)c2c(ncn2CC(=O)O)n(C)c1=O [acefylline] | 0 | 0.1 | 0 | 0 | 0 | 93 | 98.8 | 102 | 95.1 | 108 | 104 | 105 | 107 | 105 | 86.5 | 104 | 101 | 114 | 93.8 | 102 | 98.7 | 97 | 96.8 | 95.5 | 97.8 | 102 | 98 | 114 | 110 | 105 | > 10 | > 10 | > 10 | > 10 | > 10 |
| CCC(=N\O)/C(C)=C/c1ccc(F)cc1 | 0 | 0 | 0 | 0 | 0 | 91.9 | 107 | 102 | 102 | 91 | 99.1 | 99.2 | 102 | 98.5 | 98.8 | 104 | 98.5 | 95.9 | 107 | 95 | 98.4 | 100 | 98.4 | 103 | 95 | 93.9 | 91.4 | 89.5 | 96.4 | 97.5 | > 10 | > 10 | > 10 | > 10 | > 10 |
| CC(=O)NO [acetohydroxamic-acid] | 0 | 0 | 0 | 0 | 0 | 99.6 | 101 | 95.9 | 96.2 | 97.3 | 97.6 | 97.2 | 102 | 101 | 97.6 | 104 | 98.8 | 112 | 92.6 | 96.9 | 106 | 102 | 97.7 | 98.7 | 99.8 | 96.3 | 97.6 | 94.9 | 95.5 | 112 | > 10 | > 10 | > 10 | > 10 | > 10 |
| CC(C(=O)O)c1ccc(CC2CCCC2=O)cc1 (stereo not given) [loxoprofen] | 0 | 0 | 0 | 0 | 0 | 92.1 | 104 | 97 | 108 | 94.3 | 106 | 97.4 | 98.4 | 92.8 | 94.2 | 101 | 110 | 104 | 108 | 93.6 | 108 | 92.7 | 98.3 | 94.8 | 96.9 | 98.6 | 90 | 97.1 | 88.1 | 96 | > 10 | > 10 | > 10 | > 10 | > 10 |
| Oc1ccc(Cl)cc1 [parachlorophenol] | 0 | 0 | 0 | 0 | 0 | 108 | 99.1 | 90.9 | 111 | 98.4 | 100 | 101 | 99.3 | 97.7 | 99.7 | 102 | 100 | 98.9 | 91.2 | 104 | 98.5 | 96.5 | 97.2 | 95.4 | 102 | 94.2 | 91.5 | 99.7 | 90.4 | 100 | > 10 | > 10 | > 10 | > 10 | > 10 |
| CN(C)Cc1ccc(-c2nc3cccc4c3n2CCNC4=O)cc1 | 1.4 | 0 | 0 | 0 | 0 | 109 | 93.3 | 97.5 | 95.9 | 77.1 | 104 | 95.9 | 103 | 96 | 101 | 85.7 | 90.3 | 80.8 | 73.7 | 99.7 | 93.6 | 98 | 94.6 | 100 | 99.8 | 92.8 | 117 | 104 | 100 | 98.2 | > 10 | > 10 | > 10 | > 10 | > 10 |
| CN1CC(=O)NC1=N [creatinine] | 0 | 0 | 0.2 | 0 | 0 | 97.4 | 97.3 | 104 | 90.9 | 103 | 100 | 97 | 93.9 | 96.1 | 98.7 | 97.2 | 99.7 | 85 | 95.7 | 87.5 | 100 | 99.5 | 97.3 | 98.4 | 95.5 | 95.8 | 96.6 | 96.9 | 102 | 99.1 | > 10 | > 10 | > 10 | > 10 | > 10 |
